What was measured:
Test in all cases: relative viability (nuclei count vs DMSO), 5 days (fraction); higher = more cells survive
201T = system: 201T
Summary of the method: (§1)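 Nuclei were stained with Hoechst during a one-step fixation (final 0.05% Triton X-100, 1% formaldehyde, 1 ug/ml Hoechst) carried out 5 days after dosing, then counted on 4× images. The cells, lung cancer lines in 1536-well plates, had been dosed by pin tool the day after seeding with one drug alone or a fixed anchor-drug dose plus five library-drug doses (not always all listed) in √10 steps. Relative viability is the nuclei count in treated wells divided by that in vehicle wells, and each value is the median of duplicate plates.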

COR-L23 = system: COR-L23
Summary of the method: as §1

LCLC-97TM1 = system: LCLC-97TM1
Summary of the method: as §1

PC-14 = system: PC-14
Summary of the method: as §1

NCI-H1355 = system: NCI-H1355
Summary of the method: as §1

NCI-H2126 = system: NCI-H2126
Summary of the method: as §1

NCI-H2009 = system: NCI-H2009
Summary of the method: as §1

HCC-78 = system: HCC-78
Summary of the method: as §1

NCI-H1734 = system: NCI-H1734
Summary of the method: as §1

NCI-H460 = system: NCI-H460
Summary of the method: as §1

HARA = system: HARA
Summary of the method: as §1

NCI-H647 = system: NCI-H647
Summary of the method: as §1

NCI-H1792 = system: NCI-H1792
Summary of the method: as §1

HCC-15 = system: HCC-15
Summary of the method: as §1

NCI-H596 = system: NCI-H596
Summary of the method: as §1

NCI-H441 = system: NCI-H441
Summary of the method: as §1

LOU-NH91 = system: LOU-NH91
Summary of the method: as §1

HCC-366 = system: HCC-366
Summary of the method: as §1

ChaGo-K-1 = system: ChaGo-K-1
Summary of the method: as §1

For COCC1(CO)C(=O)C2CCN1CC2 (stereo unspecified) [PRIMA-1MET] + CC1(C)CCC(c2ccc(Cl)cc2)=C(CN2CCN(c3ccc(C(=O)NS(=O)(=O)c4ccc(N[C@H](CCN5CCOCC5)CSc5ccccc5)c(S(=O)(=O)C(F)(F)F)c4)cc3)CC2)C1 [Navitoclax] (partner 0.5 µM), which relative viability (201T; first compound 0.2 µM) is on record?
Its relative viability is 1.31.

What about the relative viability (201T; first compound 0.6325 µM) of the same compound?
The relative viability was 1.17.

What about the relative viability (201T; first compound 2 µM) of the same compound?
The relative viability was 1.13.

And the relative viability (201T; first compound 6.325 µM)?
Its relative viability is 1.27.

And the relative viability (201T; first compound 20 µM)?
Its relative viability is 1.2.

And the relative viability (COR-L23; first compound 0.2 µM)?
The relative viability was 1.1.

What about the relative viability (COR-L23; first compound 0.6325 µM) of the same compound?
Its relative viability is 0.93.

What about the relative viability (COR-L23; first compound 2 µM) of the same compound?
The relative viability was 1.06.

And the relative viability (COR-L23; first compound 6.325 µM)?
The relative viability was 1.03.

What about the relative viability (COR-L23; first compound 20 µM) of the same compound?
Its relative viability is 0.023.

And the relative viability (LCLC-97TM1; first compound 0.2 µM)?
Its relative viability is 0.605.

What about the relative viability (LCLC-97TM1; first compound 2 µM) of the same compound?
The relative viability was 0.644.

What about the relative viability (LCLC-97TM1; first compound 6.325 µM) of the same compound?
The relative viability was 0.531.

What about the relative viability (LCLC-97TM1; first compound 20 µM) of the same compound?
The relative viability was 0.0875.

And the relative viability (PC-14; first compound 0.2 µM)?
The relative viability was 0.951.

What about the relative viability (PC-14; first compound 0.6325 µM) of the same compound?
Its relative viability is 0.932.

What about the relative viability (PC-14; first compound 2 µM) of the same compound?
The relative viability was 0.936.

And the relative viability (PC-14; first compound 6.325 µM)?
Its relative viability is 1.03.

What about the relative viability (PC-14; first compound 20 µM) of the same compound?
The relative viability was 0.929.

And the relative viability (NCI-H1355; first compound 0.2 µM)?
The relative viability was 1.08.

And the relative viability (NCI-H1355; first compound 0.6325 µM)?
The relative viability was 0.791.

And the relative viability (NCI-H1355; first compound 2 µM)?
Its relative viability is 0.804.

And the relative viability (NCI-H1355; first compound 6.325 µM)?
Its relative viability is 0.947.

And the relative viability (NCI-H1355; first compound 20 µM)?
The relative viability was 0.944.

And the relative viability (NCI-H2126; first compound 0.2 µM)?
Its relative viability is 0.931.

What about the relative viability (NCI-H2126; first compound 0.6325 µM) of the same compound?
Its relative viability is 0.833.

And the relative viability (NCI-H2126; first compound 2 µM)?
The relative viability was 0.897.

And the relative viability (NCI-H2126; first compound 6.325 µM)?
Its relative viability is 0.852.

And the relative viability (NCI-H2126; first compound 20 µM)?
The relative viability was 0.839.

What about the relative viability (NCI-H2009; first compound 0.2 µM) of the same compound?
The relative viability was 1.2.

What about the relative viability (NCI-H2009; first compound 0.6325 µM) of the same compound?
The relative viability was 1.23.

What about the relative viability (NCI-H2009; first compound 2 µM) of the same compound?
The relative viability was 1.23.

What about the relative viability (NCI-H2009; first compound 6.325 µM) of the same compound?
The relative viability was 1.16.

What about the relative viability (NCI-H2009; first compound 20 µM) of the same compound?
Its relative viability is 0.302.

What about the relative viability (HCC-78; first compound 0.2 µM) of the same compound?
Its relative viability is 0.876.

And the relative viability (HCC-78; first compound 0.6325 µM)?
The relative viability was 0.77.

And the relative viability (HCC-78; first compound 6.325 µM)?
Its relative viability is 0.787.

And the relative viability (HCC-78; first compound 20 µM)?
The relative viability was 0.0496.

And the relative viability (NCI-H1734; first compound 0.2 µM)?
Its relative viability is 0.943.

What about the relative viability (NCI-H1734; first compound 0.6325 µM) of the same compound?
The relative viability was 0.772.

And the relative viability (NCI-H1734; first compound 2 µM)?
Its relative viability is 0.744.

What about the relative viability (NCI-H1734; first compound 6.325 µM) of the same compound?
The relative viability was 0.922.

And the relative viability (NCI-H1734; first compound 20 µM)?
Its relative viability is 0.221.

And the relative viability (NCI-H460; first compound 0.2 µM)?
The relative viability was 1.44.

What about the relative viability (NCI-H460; first compound 0.6325 µM) of the same compound?
Its relative viability is 0.971.

And the relative viability (NCI-H460; first compound 2 µM)?
Its relative viability is 1.06.

What about the relative viability (NCI-H460; first compound 6.325 µM) of the same compound?
The relative viability was 0.528.

And the relative viability (NCI-H460; first compound 20 µM)?
The relative viability was 0.0099.

What about the relative viability (HARA; first compound 0.2 µM) of the same compound?
Its relative viability is 1.22.

And the relative viability (HARA; first compound 0.6325 µM)?
The relative viability was 1.02.

And the relative viability (HARA; first compound 6.325 µM)?
Its relative viability is 1.13.

What about the relative viability (HARA; first compound 20 µM) of the same compound?
The relative viability was 1.11.

And the relative viability (NCI-H647; first compound 0.2 µM)?
The relative viability was 1.15.

What about the relative viability (NCI-H647; first compound 0.6325 µM) of the same compound?
The relative viability was 1.

And the relative viability (NCI-H647; first compound 2 µM)?
Its relative viability is 0.889.

What about the relative viability (NCI-H647; first compound 6.325 µM) of the same compound?
The relative viability was 1.24.

What about the relative viability (NCI-H647; first compound 20 µM) of the same compound?
Its relative viability is 0.909.

What about the relative viability (NCI-H1792; first compound 0.2 µM) of the same compound?
Its relative viability is 0.525.

And the relative viability (NCI-H1792; first compound 0.6325 µM)?
The relative viability was 0.48.

And the relative viability (NCI-H1792; first compound 2 µM)?
Its relative viability is 0.589.

What about the relative viability (NCI-H1792; first compound 6.325 µM) of the same compound?
Its relative viability is 0.617.

And the relative viability (NCI-H1792; first compound 20 µM)?
The relative viability was 0.544.

What about the relative viability (HCC-15; first compound 0.2 µM) of the same compound?
The relative viability was 0.772.

And the relative viability (HCC-15; first compound 0.6325 µM)?
Its relative viability is 0.686.

What about the relative viability (HCC-15; first compound 2 µM) of the same compound?
The relative viability was 0.694.

And the relative viability (HCC-15; first compound 6.325 µM)?
The relative viability was 0.713.

And the relative viability (HCC-15; first compound 20 µM)?
The relative viability was 0.455.

And the relative viability (NCI-H596; first compound 0.2 µM)?
The relative viability was 1.

And the relative viability (NCI-H596; first compound 0.6325 µM)?
The relative viability was 0.797.

What about the relative viability (NCI-H596; first compound 2 µM) of the same compound?
Its relative viability is 1.01.

What about the relative viability (NCI-H596; first compound 6.325 µM) of the same compound?
The relative viability was 1.08.

And the relative viability (NCI-H596; first compound 20 µM)?
Its relative viability is 0.982.

And the relative viability (NCI-H441; first compound 0.2 µM)?
The relative viability was 0.561.

And the relative viability (NCI-H441; first compound 0.6325 µM)?
Its relative viability is 0.334.

What about the relative viability (NCI-H441; first compound 2 µM) of the same compound?
The relative viability was 1.02.

What about the relative viability (NCI-H441; first compound 6.325 µM) of the same compound?
The relative viability was 0.644.

And the relative viability (NCI-H441; first compound 20 µM)?
The relative viability was 0.0807.

What about the relative viability (LOU-NH91; first compound 0.2 µM) of the same compound?
Its relative viability is 0.729.

What about the relative viability (LOU-NH91; first compound 0.6325 µM) of the same compound?
Its relative viability is 0.677.

What about the relative viability (LOU-NH91; first compound 2 µM) of the same compound?
The relative viability was 0.589.

What about the relative viability (LOU-NH91; first compound 6.325 µM) of the same compound?
The relative viability was 0.601.

What about the relative viability (LOU-NH91; first compound 20 µM) of the same compound?
Its relative viability is 0.383.

What about the relative viability (HCC-366; first compound 0.2 µM) of the same compound?
Its relative viability is 1.27.

What about the relative viability (HCC-366; first compound 0.6325 µM) of the same compound?
Its relative viability is 0.959.

And the relative viability (HCC-366; first compound 6.325 µM)?
Its relative viability is 0.981.

And the relative viability (HCC-366; first compound 20 µM)?
The relative viability was 0.024.

And the relative viability (ChaGo-K-1; first compound 0.2 µM)?
Its relative viability is 1.08.

And the relative viability (ChaGo-K-1; first compound 0.6325 µM)?
Its relative viability is 0.667.

And the relative viability (ChaGo-K-1; first compound 2 µM)?
Its relative viability is 1.11.

And the relative viability (ChaGo-K-1; first compound 6.325 µM)?
Its relative viability is 1.11.

And the relative viability (ChaGo-K-1; first compound 20 µM)?
Its relative viability is 0.404.

From the supplement of paper PMC10307832
